Results reported in publication PMC8058764 (Chemical Research in Toxicology, 2021).

How the values were obtained:
neonatal pooled HLMs = experiment: Inhibition of DHEA-S metabolism; format: biochemical, human; settings: DHEA-S 50 μM, HLMs 0.05 mg/mL, lopinavir 8 μM without or with ritonavir 0.5 μM, 30 min
[1] = Lopinavir intrinsic clearance by adult human liver microsomes; format: in vitro ADME
[2] = Lopinavir intrinsic clearance by neonatal human liver microsomes; format: in vitro ADME; settings: for mean lopinavir percent loss: lopinavir 1 μM, 30 min
CYP17A1 = settings: NCI-H295R cells; cited from earlier work
CYP21A2 = settings: NCI-H295R cells; cited from earlier work
[3] = both, human, pooled adult human liver microsomes, pH 7.4
[4] = human, pooled neonatal human liver microsomes, pH 7.4

mean lopinavir percent loss ([1]; adult HLMs 0.02 mg/mL, lopinavir 1 μM, 30 min): about 94% | lopinavir loss in presence of ritonavir ([1]; adult HLMs 0.02 mg/mL, lopinavir 1 μM, ritonavir 62.5 nM): less than 20% | half-life at 1 μM [1, 3]: 7.18 min | microsomal CLint at 1 μM [1, 3]: 4830 µL/min/mg | half-life at 1 μM [2, 4]: 52.1 min | microsomal CLint at 1 μM [2, 4]: 133 µL/min/mg | mean lopinavir percent loss ([2]; neonatal HLMs 0.02 mg/mL): 21% | mean lopinavir percent loss ([2]; neonatal HLMs 0.1 mg/mL): 32%
SMILES: Cc1cccc(C)c1OCC(=O)N[C@@H](Cc1ccccc1)[C@@H](O)C[C@H](Cc1ccccc1)NC(=O)[C@H](C(C)C)N1CCCNC1=O [lopinavir]
formation rate of 16α-hydroxy DHEA-S in neonatal HLMs (neonatal pooled HLMs): 1.19 nmol/min/mg protein | inhibition of CYP17A1 (CYP17A1): moderate inhibition | inhibition of CYP21A2 (CYP21A2): moderate inhibition
